Reference: patent US12077503B2, “Substituted cyclic amides and their use as herbicides” (FMC CORPORATION, priority 2015, dated 2024)

Tests used:
Assay type in all cases: in vivo
[1] = tested on: redroot pigweed (Amaranthus retroflexus); test: Test G Pre-Emergence Protocol; details: Amaranthus retroflexus, pre-emergence, 312 h, evaluated after 13 days; for pest or weed control at 15.625 g/ha: 15.625 g ai/ha; for pest or weed control at 15.625 g/ha / pest or weed control at 250 g/ha: read-out: Pigweed, Redroot damage rating (100=total damage to plant; 0=no damage to plant); for pest or weed control at 62.5 g/ha: 62.5 g ai/ha, 100=total damage to plant, 0=no damage to plant, read-out: plant damage rating, Pigweed, Redroot; for pest or weed control at 250 g/ha: 250 g ai/ha
Outline: (§1)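 One day after sowing, pots are treated with a spray of test compound formulated in acetone/water 50:50 plus 0.5% Tween 20, giving 15.625, 62.5 or 250 g/ha. Evaluation on a 0–100 damage scale follows 13 days of glasshouse growth.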

[2] = tested on: velvetleaf (Abutilon theophrasti); test: Test G Pre-Emergence Protocol; details: Abutilon theophrasti, pre-emergence, 312 h, evaluated after 13 days; for pest or weed control at 15.625 g/ha: 15.625 g ai/ha; for pest or weed control at 15.625 g/ha / pest or weed control at 250 g/ha: read-out: Velvetleaf damage rating (100=total damage to plant; 0=no damage to plant); for pest or weed control at 62.5 g/ha: 62.5 g ai/ha, 100=total damage to plant, 0=no damage to plant, read-out: plant damage rating, Velvetleaf; for pest or weed control at 250 g/ha: 250 g ai/ha
Outline: as §1

corn (Zea mays) [3] = test: Test G Pre-Emergence Protocol; details: Zea mays, pre-emergence, 312 h, evaluated after 13 days; for plant injury at 15.625 g/ha: 15.625 g ai/ha; for plant injury at 15.625 g/ha / plant injury at 250 g/ha: read-out: Corn damage rating (100=total damage to plant; 0=no damage to plant); for plant injury at 62.5 g/ha: 62.5 g ai/ha, 100=total damage to plant, 0=no damage to plant, read-out: plant damage rating, Corn; for plant injury at 250 g/ha: 250 g ai/ha
Outline: as §1

[4] = tested on: giant foxtail (Setaria faberi); test: Test G Pre-Emergence Protocol; details: Setaria faberi, pre-emergence, 312 h, evaluated after 13 days; for pest or weed control at 15.625 g/ha: 15.625 g ai/ha; for pest or weed control at 15.625 g/ha / pest or weed control at 250 g/ha: read-out: Foxtail, Giant damage rating (100=total damage to plant; 0=no damage to plant); for pest or weed control at 62.5 g/ha: 62.5 g ai/ha, 100=total damage to plant, 0=no damage to plant, read-out: plant damage rating, Foxtail, Giant; for pest or weed control at 250 g/ha: 250 g ai/ha
Outline: as §1

[5] = tested on: barnyardgrass (Echinochloa crus-galli); test: Test G Pre-Emergence Protocol; details: Echinochloa crus-galli, pre-emergence, 312 h, evaluated after 13 days; for pest or weed control at 15.625 g/ha: 15.625 g ai/ha, read-out: Barnyard grass damage rating (100=total damage to plant; 0=no damage to plant); for pest or weed control at 62.5 g/ha: 62.5 g ai/ha, 100=total damage to plant, 0=no damage to plant, read-out: plant damage rating, Barnyardgrass; for pest or weed control at 250 g/ha: 250 g ai/ha, read-out: Barnyardgrass damage rating (100=total damage to plant; 0=no damage to plant)
Outline: as §1

[6] = tested on: ivy-leaved morning glory (Ipomoea hederacea); test: Test G Pre-Emergence Protocol; details: Ipomoea, pre-emergence, 312 h, evaluated after 13 days; for pest or weed control at 15.625 g/ha: 15.625 g ai/ha, read-out: Morning-glory, Ivy-leaved damage rating (100=total damage to plant; 0=no damage to plant); for pest or weed control at 62.5 g/ha: 62.5 g ai/ha, 100=total damage to plant, 0=no damage to plant, read-out: plant damage rating, Morningglory, Ivy-leaved; for pest or weed control at 250 g/ha: 250 g ai/ha, read-out: Morningglory, Ivy-leaved damage rating (100=total damage to plant; 0=no damage to plant)
Outline: as §1

[7] = tested on: redroot pigweed (Amaranthus retroflexus); test: Test G Post-Emergence Protocol; details: Amaranthus retroflexus, post-emergence, 312 h; for pest or weed control at 15.625 g/ha: 15.625 g ai/ha, evaluated after 13 days (100=total damage to plant; 0=no damage to plant), read-out: Pigweed, Redroot damage rating; for pest or weed control at 62.5 g/ha: 62.5 g ai/ha, read-out: Pigweed, Redroot damage rating (100=total damage to plant; 0=no damage to plant); for pest or weed control at 62.5 g/ha / pest or weed control at 250 g/ha: evaluated after 13 days; for pest or weed control at 250 g/ha: 250 g ai/ha, read-out: damage to plant, Pigweed, Redroot (100=total damage to plant; 0=no damage to plant)
Outline: (§2)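 Seedlings grown 8 days in soil in a glasshouse (24/16 °C day/night, 14 h light, 65% humidity) were sprayed post-emergence with compound in acetone/water 50:50 plus 0.5% Tween 20 at 15.625, 62.5 or 250 g/ha. Damage was scored after 13 days on a 0–100 scale (100 = total damage).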

[8] = tested on: velvetleaf (Abutilon theophrasti); test: Test G Post-Emergence Protocol; details: Abutilon theophrasti, post-emergence, 312 h; for pest or weed control at 15.625 g/ha: 15.625 g ai/ha, evaluated after 13 days (100=total damage to plant; 0=no damage to plant), read-out: Velvetleaf damage rating; for pest or weed control at 62.5 g/ha: 62.5 g ai/ha, read-out: Velvetleaf damage rating (100=total damage to plant; 0=no damage to plant); for pest or weed control at 62.5 g/ha / pest or weed control at 250 g/ha: evaluated after 13 days; for pest or weed control at 250 g/ha: 250 g ai/ha, read-out: damage to plant, Velvetleaf (100=total damage to plant; 0=no damage to plant)
Outline: as §2

corn (Zea mays) [9] = test: Test G Post-Emergence Protocol; details: Zea mays, post-emergence, 312 h; for plant injury at 15.625 g/ha: 15.625 g ai/ha, evaluated after 13 days (100=total damage to plant; 0=no damage to plant), read-out: Corn damage rating; for plant injury at 62.5 g/ha: 62.5 g ai/ha, read-out: Corn damage rating (100=total damage to plant; 0=no damage to plant); for plant injury at 62.5 g/ha / plant injury at 250 g/ha: evaluated after 13 days; for plant injury at 250 g/ha: 250 g ai/ha, read-out: damage to plant, Corn (100=total damage to plant; 0=no damage to plant)
Outline: as §2

[10] = tested on: giant foxtail (Setaria faberi); test: Test G Post-Emergence Protocol; details: Setaria faberi, post-emergence, 312 h; for pest or weed control at 15.625 g/ha: 15.625 g ai/ha, evaluated after 13 days (100=total damage to plant; 0=no damage to plant), read-out: Foxtail, Giant damage rating; for pest or weed control at 62.5 g/ha: 62.5 g ai/ha, read-out: Foxtail, Giant damage rating (100=total damage to plant; 0=no damage to plant); for pest or weed control at 62.5 g/ha / pest or weed control at 250 g/ha: evaluated after 13 days; for pest or weed control at 250 g/ha: 250 g ai/ha, read-out: damage to plant, Foxtail, Giant (100=total damage to plant; 0=no damage to plant)
Outline: as §2

[11] = tested on: barnyardgrass (Echinochloa crus-galli); test: Test G Post-Emergence Protocol; details: Echinochloa crus-galli, post-emergence, 312 h; for pest or weed control at 15.625 g/ha: 15.625 g ai/ha, evaluated after 13 days (100=total damage to plant; 0=no damage to plant), read-out: Barnyardgrass damage rating; for pest or weed control at 62.5 g/ha: 62.5 g ai/ha, read-out: Barnyardgrass damage rating (100=total damage to plant; 0=no damage to plant); for pest or weed control at 62.5 g/ha / pest or weed control at 250 g/ha: evaluated after 13 days; for pest or weed control at 250 g/ha: 250 g ai/ha, read-out: damage to plant, Barnyardgrass (100=total damage to plant; 0=no damage to plant)
Outline: as §2

[12] = tested on: ivy-leaved morning glory (Ipomoea hederacea); test: Test G Post-Emergence Protocol; details: Ipomoea, post-emergence, 312 h; for pest or weed control at 15.625 g/ha: 15.625 g ai/ha, evaluated after 13 days (100=total damage to plant; 0=no damage to plant), read-out: Morningglory, Ivy-leaved damage rating; for pest or weed control at 62.5 g/ha: 62.5 g ai/ha, read-out: Morningglory, Ivy-leaved damage rating (100=total damage to plant; 0=no damage to plant); for pest or weed control at 62.5 g/ha / pest or weed control at 250 g/ha: evaluated after 13 days; for pest or weed control at 250 g/ha: 250 g ai/ha, read-out: damage to plant, Morningglory, Ivy-leaved (100=total damage to plant; 0=no damage to plant)
Outline: as §2

| Compound | pest or weed control at 15.625 g/ha [1] | pest or weed control at 62.5 g/ha [1] | pest or weed control at 250 g/ha [1] | pest or weed control at 15.625 g/ha [2] | pest or weed control at 62.5 g/ha [2] | pest or weed control at 250 g/ha [2] | plant injury at 15.625 g/ha (corn (Zea mays) [3]) | plant injury at 62.5 g/ha (corn (Zea mays) [3]) | plant injury at 250 g/ha (corn (Zea mays) [3]) | pest or weed control at 15.625 g/ha [4] | pest or weed control at 62.5 g/ha [4] | pest or weed control at 250 g/ha [4] | pest or weed control at 15.625 g/ha [5] | pest or weed control at 62.5 g/ha [5] | pest or weed control at 250 g/ha [5] | pest or weed control at 15.625 g/ha [6] | pest or weed control at 62.5 g/ha [6] | pest or weed control at 250 g/ha [6] | pest or weed control at 15.625 g/ha [7] | pest or weed control at 62.5 g/ha [7] | other results |
| --- | --- | --- | --- | --- | --- | --- | --- | --- | --- | --- | --- | --- | --- | --- | --- | --- | --- | --- | --- | --- | --- |
| CN1C[C@@H](c2ccc(C(F)(F)F)cc2)[C@H](C(=O)Nc2nnc(C(F)(F)F)o2)C1=O (racemic) [Compound 1604] | 0% | 0% | 0% | 0% | 0% | 0% | 0% | 0% | 0% | 0% | 0% | 0% | 0% | 0% | 0% | 0% | 0% | 0% | 0% | 0% | pest or weed control at 250 g/ha [7]: 0%; pest or weed control at 15.625 g/ha [8]: 0%; pest or weed control at 62.5 g/ha [8]: 0%; pest or weed control at 250 g/ha [8]: 0%; plant injury at 15.625 g/ha (corn (Zea mays) [9]): 0%; plant injury at 62.5 g/ha (corn (Zea mays) [9]): 0%; plant injury at 250 g/ha (corn (Zea mays) [9]): 0%; pest or weed control at 15.625 g/ha [10]: 0%; pest or weed control at 62.5 g/ha [10]: 0%; pest or weed control at 250 g/ha [10]: 0%; pest or weed control at 15.625 g/ha [11]: 0%; pest or weed control at 62.5 g/ha [11]: 0%; pest or weed control at 250 g/ha [11]: 0%; pest or weed control at 15.625 g/ha [12]: 0%; pest or weed control at 62.5 g/ha [12]: 0%; pest or weed control at 250 g/ha [12]: 0% |
| CN1C[C@@H](c2ccc(C(F)(F)F)cc2)[C@H](C(=O)Nc2cnnc(Cl)c2Cl)C1=O (racemic) [Compound 1567] | 0% | 0% | 0% | 0% | 0% | 0% | 0% | 0% | 0% | 0% | 0% | 0% | 0% | 0% | 0% | 0% | 0% | 0% | 0% | 0% | pest or weed control at 250 g/ha [7]: 0%; pest or weed control at 15.625 g/ha [8]: 0%; pest or weed control at 62.5 g/ha [8]: 0%; pest or weed control at 250 g/ha [8]: 0%; plant injury at 15.625 g/ha (corn (Zea mays) [9]): 0%; plant injury at 62.5 g/ha (corn (Zea mays) [9]): 0%; plant injury at 250 g/ha (corn (Zea mays) [9]): 0%; pest or weed control at 15.625 g/ha [10]: 0%; pest or weed control at 62.5 g/ha [10]: 0%; pest or weed control at 250 g/ha [10]: 0%; pest or weed control at 15.625 g/ha [11]: 0%; pest or weed control at 62.5 g/ha [11]: 0%; pest or weed control at 250 g/ha [11]: 10%; pest or weed control at 15.625 g/ha [12]: 0%; pest or weed control at 62.5 g/ha [12]: 0%; pest or weed control at 250 g/ha [12]: 0% |
| Cc1csc(NC(=O)[C@@H]2C(=O)N(C)C[C@H]2c2ccc(C(F)(F)F)cc2)c1C#N (racemic) [Compound 1576] | 0% | 0% | 20% | 0% | 0% | 0% | 0% | 0% | 20% | 30% | 70% | 70% | 30% | 70% | 90% | 0% | 0% | 0% | 0% | 0% | pest or weed control at 250 g/ha [7]: 0%; pest or weed control at 15.625 g/ha [8]: 0%; pest or weed control at 62.5 g/ha [8]: 0%; pest or weed control at 250 g/ha [8]: 10%; plant injury at 15.625 g/ha (corn (Zea mays) [9]): 0%; plant injury at 62.5 g/ha (corn (Zea mays) [9]): 20%; plant injury at 250 g/ha (corn (Zea mays) [9]): 10%; pest or weed control at 15.625 g/ha [10]: 30%; pest or weed control at 62.5 g/ha [10]: 40%; pest or weed control at 250 g/ha [10]: 70%; pest or weed control at 15.625 g/ha [11]: 10%; pest or weed control at 62.5 g/ha [11]: 60%; pest or weed control at 250 g/ha [11]: 70%; pest or weed control at 15.625 g/ha [12]: 0%; pest or weed control at 62.5 g/ha [12]: 20%; pest or weed control at 250 g/ha [12]: 20% |
